The values that follow come from patent publication US20220273007A1, “FUNCTIONAL FOOD FOR PREVENTING OR IMPROVING DYSURIA” (MARUHACHI MURAMATSU, INC., priority 2019, published 2022).

Assay [1] relates to rat bladder smooth muscle. Kind of assay: Organ bath assay: 80 mM KCl contractile inhibition assay. Here is the method:
The concentration of each fatty acid was set according to the amount thereof present in a 95% ethanol extract of akamoku (Japan Food Research Laboratories; JFRL quantitative analysis). […] Ethanol was used as a control. As in the example described above, 80 mM KCl, a contraction inducer, was also added to induce contraction. The tension (contractile force) of slices of rat bladder smooth muscle was then measured to evaluate contraction inhibition effects. […]
The maximum concentration of each fatty acid was set according to the amount thereof present in a 95% ethanol extract of akamoku (JFRL quantitative analysis). Concentrations of 7.1 μg/mL EPA, 21.3 μg/mL EPA, 71 μg/mL EPA, 4.7 μg/mL stearidonic acid, 14.1 μg/mL stearidonic acid, and 47 μg/mL stearidonic acid were set. As in the examples described above, 80 mM KCl, a contraction inducer, was also added to induce contraction. The tension (contractile force) of slices of rat bladder smooth muscle was then measured to evaluate contraction inhibition effects.

Assay [2] deals with acetic-acid-induced pollakiuria model rats. Kind of assay: In vivo assay (cystometry) using acetic-acid-induced pollakiuria model rats. More on the design: species or system rat. The following applies: 0.5 mg/kg oral (MC solution). Here is the method: In this experiment, 0.1% acetic acid diluted with normal saline was directly injected into the bladders of urethane-anesthetized rats to induce bladder hypersensitivity and create model rats having symptoms of acute (or chronic) pollakiuria, and in vivo assays were performed using these acetic-acid-induced pollakiuria model rats. […] In this way, the effects of the 95% ethanol extract of akamoku upon pollakiuric states in rats were investigated.
control (vehicle)=0.5% methyl cellulose (MC); and akamoku extract=50 mg/mL MC solution of akamoku extract.
• Maximum intravesical pressure (voiding pressure) • Base pressure • Threshold pressure • Voiding interval • Volume per void
Using the model rats with symptoms of acute (chronic) pollakiuria created in experiment 13, a 50 mg/mL MC solution of 50% ethanol extract of akamoku was orally administered to the model rats (n=7). In the graphs in FIG. 18, measured parameters are the voiding intervals, volume per void, and voiding frequency per unit of time of the rats, and pollakiuria-symptomatic model rats are compared with control rats receiving 0.5% methyl cellulose (MC) solution. In this way, the effects of the 50% ethanol extract of akamoku upon pollakiuric states in rats are investigated.
Using the model rats with symptoms of acute (chronic) pollakiuria created in experiment 13, a 50 mg/mL aqueous solution of aqueous akamoku extract was orally administered to the model rats. In the graphs in FIG. 19, measured parameters are the voiding intervals, volume per void, and voiding frequency per unit of time of the rats, compared with control rats receiving ultrapure water. In this way, the effects of the aqueous akamoku extract upon pollakiuric states in rats are investigated.
Using the model rats with symptoms of acute (chronic) pollakiuria created in experiment 13, 0.5 mg/kg akamoku-derived fucoxanthin Fx (MC solution) was orally administered to the model rats. […] In the graphs in FIG. 20, measured parameters are the voiding intervals, volume per void, and voiding frequency per unit of time of the rats, compared with control rats receiving 0.5% methyl cellulose (MC) solution.

Molecules are shown by their SMILES.

In the case of `CC/C=C\C/C=C\C/C=C\CCCCCCCC(=O)O` [α-linolenic acid], in assay [1] (Rattus norvegicus, 36 μg/mL, 80 mM KCl, read-out: average contraction compared to 100% uninhibited contraction), the activity at 36 µg/mL turned out to be 86.8%.

Turning to `CC/C=C\C/C=C\C/C=C\C/C=C\CCCCC(=O)O` [stearidonic acid], the “average contraction compared to 100% uninhibited contraction” value in assay [1] (47 μg/mL, 80 mM KCl) was determined as 75.6%. For the same molecule, in assay [1] (Rattus norvegicus, 4.7 μg/mL, 80 mM KCl, read-out: average contraction compared to 100% uninhibited contraction), the activity at 4.7 µg/mL worked out at 87.8%. In addition, the activity at 14.1 µg/mL in assay [1] (Rattus norvegicus, 14.1 μg/mL, 80 mM KCl, read-out: average contraction compared to 100% uninhibited contraction) amounted to 89.5%. The activity at 47 µg/mL in assay [1] (Rattus norvegicus, 47 μg/mL, 80 mM KCl, read-out: average contraction compared to 100% uninhibited contraction) came to 68.5%. Besides, the “inhibition of 80 mM KCl contraction” value in assay [1] (fatty acid at amount present in 95% ethanol extract of akamoku (EPA 71 μg/mL, stearidonic acid 47 μg/mL)) was “significantly inhibited contraction”.

Turning to `CC/C=C\C/C=C\C/C=C\C/C=C\C/C=C\CCCC(=O)O` [EPA, eicosapentaenoic acid], in assay [1] (71 μg/mL, 80 mM KCl), the “average contraction compared to 100% uninhibited contraction” value is given as 73.3%. For the same molecule, in assay [1] (Rattus norvegicus, 7.1 μg/mL, 80 mM KCl, read-out: average contraction compared to 100% uninhibited contraction), the activity at 7.1 µg/mL was found to be 91.1%. For the same molecule, the activity at 21.3 µg/mL in assay [1] (Rattus norvegicus, 21.3 μg/mL, 80 mM KCl, read-out: average contraction compared to 100% uninhibited contraction) was determined as 87.2%. Further, the activity at 71 µg/mL in assay [1] (Rattus norvegicus, 71 μg/mL, 80 mM KCl, read-out: average contraction compared to 100% uninhibited contraction) turned out to be 78.2%.

Regarding `CCCCC/C=C\C/C=C\C/C=C\C/C=C\CCCC(=O)O` [arachidonic acid], the activity at 44 µg/mL in assay [1] (Rattus norvegicus, 44 μg/mL, 80 mM KCl, read-out: average contraction compared to 100% uninhibited contraction) turned out to be 82%.

For `CC(=O)O[C@H]1CC(C)(C)C(=C=C/C(C)=C/C=C/C(C)=C/C=C/C=C(C)/C=C/C=C(\C)C(=O)C[C@@]23O[C@]2(C)C[C@@H](O)CC3(C)C)[C@](C)(O)C1` [akamoku-derived fucoxanthin, fucoxanthin], in assay [2], the “improvement in 0.1% acetic-acid-induced pollakiuria” value is reported as “significant improvement”, the “voiding frequency per unit of time” value is listed as “decreased”, the voiding interval result is on record as “tended to increase” and the volume per void entry was “increased”.
